Data: US20240424053A1, “METHODS AND COMPOSITIONS FOR PROVIDING MYOCARDIAL PROTECTION AND TREATING MYOCARDIAL STRESS AND FIBROSIS” (Tufts Medical Center, Inc., priority 2021, published 2024)
“Also recorded” adds a separate entry of the source. Where a SMILES comes first, the peptide text is derived from it. The star is where a group is joined. Palmitoyl = CCCCCCCCCCCCCCCC(=O)*

Target: T1, PAR1 (Mus musculus, UniProt P30558)
T1 construct: endogenous in cells; host or cells: male C57BL/6N mice, in vivo
T1 sequence (P30558 22-430): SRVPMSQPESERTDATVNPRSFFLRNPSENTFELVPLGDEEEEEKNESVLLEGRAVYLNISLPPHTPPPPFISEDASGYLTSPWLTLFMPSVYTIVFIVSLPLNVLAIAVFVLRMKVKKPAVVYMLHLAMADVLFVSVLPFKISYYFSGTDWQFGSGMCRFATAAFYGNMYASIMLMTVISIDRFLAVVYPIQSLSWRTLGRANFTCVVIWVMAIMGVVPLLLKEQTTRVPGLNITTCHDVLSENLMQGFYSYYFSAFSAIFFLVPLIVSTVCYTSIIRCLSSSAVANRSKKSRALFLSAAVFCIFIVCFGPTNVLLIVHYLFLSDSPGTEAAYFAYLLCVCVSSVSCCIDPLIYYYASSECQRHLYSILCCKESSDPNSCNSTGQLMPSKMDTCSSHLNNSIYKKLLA
Experiment: echocardiography after 3 days reperfusion following 30 min myocardial ischemia in mice
Format: in vivo
Conditions: 10 mg/kg sc once daily, n=4
Protocol: A role of PAR1 in directly mediating cardiac ischemic myonecrosis—independent of established platelet-dependent effects (Strande et al., Basic Res. Cardiol. 102(4):350-358, 2007)—was also examined. […] Mice (n=7) were treated with vehicle or 10 mg/kg PZ-128 (subcutaneous; sc) just prior to ischemic injury. As shown in FIG. 1a-d, PZ-128-treated mice had 51-62% reductions in mean cardiac Infarct Area (p<0.01), Area At Risk (p<0.01), and Total Ischemic Area (p<0.0001) compared to vehicle-treated mice. […] Using echocardiography after 3 days of reperfusion, there was a significant increase in left ventricular mass (p<0.05) in vehicle compared to PZ-128 treated cohorts, with no difference in left ventricular mass between baseline and 3 days in the PZ-128 cohort (FIG. 2). […] Previous pharmacokinetic studies of subcutaneously administered PZ-128 in mice were the basis of this 10 mg/kg dose in mice (Cisowski et al., Am. J. Pathol. 179(1):513-523, 2011), selected to match the 0.3-0.5 mg/kg doses administered in humans.
A subset of male C57BL6N mice from each group subjected to 30 min left coronary artery ischemia (FIGS. 1A-1E) were reperfused for 3 days (n=4 vehicle, n=4 10 mg/kg PZ-128 sc once daily).

In the case of `CCCCCCCCCCCCCCCC(=O)N[C@@H](CCCCN)C(=O)N[C@@H](CCCCN)C(=O)N[C@@H](CO)C(=O)N[C@@H](CCCNC(=N)N)C(=O)N[C@@H](C)C(=O)N[C@@H](CC(C)C)C(=O)N[C@@H](Cc1ccccc1)C(N)=O` [PZ-128, Palmitate-KKSRALF-NH2] (Palmitoyl-KKSRALF-NH2), the “ejection fraction at 3 days compared to baseline” value is reported as “no significant reductions; also recorded: maintained baseline”, the “fractional shortening at 3 days compared to baseline” value is reported as “no significant reductions; also recorded: maintained baseline” and the “left ventricular mass, baseline vs 3 days” value is reported as “no difference; also recorded: no significant differences”.
